# Data from USRE46907E1, “Suppression of cancer growth and metastasis using nordihydroguaiaretic acid derivatives with metabolic modulators” (THE JOHNS HOPKINS UNIVERSITY, priority 2008, dated 2018).
# Experiments:
# HIF [1] = test: Western blotting of HIF in 67NR cells; assay type: cell-based, mouse; conditions: M4N 80 μM
# Procedure: (§1) Western blotting: After cells had been grown in 25 mm^2 flasks and treated with reagents, the cells were washed with PBS (−) three times and suspended in RIP A buffer (150 mM NaCl, 50 mM Tris-HCl (pH 8,0), 0.1% SDS, 1% NP40, and 0.5% deoxycholate) supplemented with protease inhibitor cocktail (Calbiochem, San Diego, Calif.). The sample volumes were adjusted by the total protein amount. Protein assay was performed by Bio-Rad Protein Assay (Bio-Rad Laboratories, Inc. Hercules, Calif.). The samples were resolved by the standard SDS-polyacrylamide gel electrophoresis and transferred to nitrocellulose membrane (Amersham Biosciences, Bjorkgatan, Sweden). The membranes were blocked with skim milk, and incubated with primary antibodies at 4° C. overnight and then with secondary antibody conjugated with horse radish peroxidase at room temperature for 2 hrs. The signals were detected by western blot chemiluminescence reagent plus (New England Nuclear Life Science Products, Boston, Mass.).
# [2] = system: LNCaP human prostate cancer cells; assay type: cell-based; conditions: 28 hrs, M4N 80 μM, Ro 5 μM, Ly 20 μM
# Procedure: (§2) Cell Culture Either cell line 4T1 or 67NR was a gift from Dr. Miller (20). The cells were cultured in RPMI1640 medium supplemented with glucose (14 mM), pyruvate (1 mM), penicillin (100 units/ml), streptomycin (100 μg/ml), and fetal bovine serum (10%), buffered with 25 mM HEPES (pH 7.4). LNCaP human prostate cancer cell line was purchased from American Type Culture Collection (Manassas, Va.). The cell line was cultured in RPMI1640 medium supplemented with glucose (14 mM), pyruvate (1 mM), penicillin (100 units/ml), streptomycin (100 μg/ml), and fetal bovine serum (10%). Drugs were dissolved in dimethyl sulfoxide (DMSO) at a suitable concentration so that the final concentration of DMSO in the medium was less than 0.1%.
# Apoptosis assay: Simple TLTNEL assay was conducted by using TUNEL apoptosis detection kit (Upstate, Temecula, Calif.) with some modification. For the evaluation of the effect of PKCδ wild type and dominant negative vectors on TUNEL-positive cell death, we first transfected 4T1 or 67NR cells with these vectors by effectene (Qiagen, Valencia, Calif.). Wild type PKCδ vector is constructed from wild type PKCδ gene and pEGFP (Promega, Madison, Wis.). Dominant negative PKCδ vector is constructed from PKCδ gene mutated at a 376th amino acid residue (threonine) and pEGFP (Promega, Madison, Wis.) This threonine residue is located in ATP-binding domain of protein kinase Cδ, and therefore essential for any kinase reaction of the protein so that this mutant protein supposedly function as dominant negative. As a control we used pEGFP-N3 vector was used. These vectors contain green fluorescent protein (GFP) gene to be used as a transfection marker. The vectors are kind gifts from Dr. Yuspa (National Institutes of Health, Bethesda, Md.) (88). Twenty four hours after transfection, the cells were treated with M4N, Rottlerin, or Ly294002. Then 24 hrs after this treatment with these reagents, the cells were fixed with 10% formaldehyde in phosphate buffered saline without calcium and magnesium (PBS (−)). The cells were then incubated with rabbit anti-GFP antibody (MBL International, Woburn, Mass.) followed by treatment with anti-rabbit IgG antibody conjugated with fluorescein (Promega, Madison, Wis.). TUNEL staining was conducted by using TUNEL apoptosis detection kit (Upstate, Temecula, Calif.) except for using Streptavidin-Alexa Fluor 568 (Molecular Probes, Eugene, Oreg.) instead of Avidine-Rhodamine contained in the kit. Cell death was evaluated by dividing the number of TUNEL-positive cells among the cells positive with anti-GFP staining by the number of these GFP-positive cells.
# HIF [3] = test: Western blotting of HIF in 4T1 cells; assay type: cell-based, mouse; conditions: 4T1, M4N 80 μM
# Procedure: as §1
# [4] = system: LNCaP human prostate cancer cells; test: MTT cell growth assay in LNCaP cells; assay type: cell-based; conditions: 24 hrs, M4N 80 μM, Ro 5 μM, Ly 20 μM
# Procedure: as §2
# MTT assay: Cells were incubated in PBS (−) supplemented with 5% fetal calf serum and 0.5 mg/ml MTT, 3-(4,5-Dimethylthiazol-2-yl)-2,5-diphenyltetrazolium bromide (Sigma, Saint Louis, Mo.) for 2 hrs. After the incubation, the cells were dissolved in dimethyl sulfoxide and the color of the solutions was measured by a spectrophotometer at wavelengths of 540 and 690 nm. The values correlated with viable cell numbers were obtained by subtracting the optical density at 690 nm from that, at 540 nm.
# caspase-9 = test: Western blotting of caspase-9 cleavage in 67NR cells; assay type: cell-based, mouse; conditions: 5 hrs, Rottlerin 5 μM, M4N 80 μM
# Procedure: as §1
# PKCδ [5] = test: Western blotting of total PKCδ and phosphor-PKCδ (Thr505) in 4T1 cells; assay type: cell-based, mouse; conditions: 4T1, 5 hrs; M4N 80 μM, Ro 5 μM, Ly 20 μM, Des 150 μM
# Procedure: as §1, with “The” for “Western blotting: After cells had been grown in 25 mm^2 flasks and treated with reagents, the cells were washed with PBS (−) three times and suspended in RIP A buffer (150 mM NaCl, 50 mM Tris-HCl (pH 8,0), 0.1% SDS, 1% NP40, and 0.5% deoxycholate) supplemented with protease inhibitor cocktail (Calbiochem, San Diego, Calif.). The”
# [6] = system: PDK-1/Akt pathway-related proteins; test: Western blotting of PDK-1/Akt pathway-related proteins in 4T1 cells; assay type: cell-based, mouse; conditions: 4T1, 5 hrs after treatment
# Procedure: as §1
# PKCδ [7] = test: Western blotting of total PKCδ and phosphor-PKCδ (Thr505) in 67NR cells; assay type: cell-based, mouse; conditions: 5 hrs, M4N 80 μM, Ro 5 μM, Ly 20 μM, Des 150 μM
# Procedure: as §1, with “The” for “Western blotting: After cells had been grown in 25 mm^2 flasks and treated with reagents, the cells were washed with PBS (−) three times and suspended in RIP A buffer (150 mM NaCl, 50 mM Tris-HCl (pH 8,0), 0.1% SDS, 1% NP40, and 0.5% deoxycholate) supplemented with protease inhibitor cocktail (Calbiochem, San Diego, Calif.). The”
# tumors = conditions: intravenous infusion, cited from earlier work
# [8] = system: PDK-1/Akt pathway-related proteins; test: Western blotting of PDK-1/Akt pathway-related proteins in 67NR cells; assay type: cell-based, mouse; conditions: 5 hrs after treatment
# Procedure: as §1
compound,measurement,setting,value
"COc1ccc(C[C@@H](C)[C@@H](C)Cc2ccc(OC)c(OC)c2)cc1OC [M4N, tetra-O-methyl nordihydroguaiaretic acid]",effect on Desferoxamine-mediated HIF induction,HIF [1],instead enhanced
same,TUNEL-positive cell death,[2],very small
same,effect on Desferoxamine-mediated HIF induction,HIF [3],slightly suppressed
same,cell growth (MTT),[4],able to reduce cell growth almost as much as a combination treatment
same,caspase-9 activation (cleavage),caspase-9,slightly further augmented
same,amount of phosphorylated PKCδ at Thr505,PKCδ [5],induced phosphorylation
same,total Akt expression,[6],not changed much
same,"expression of phosphorylated PDK (Ser241), Akt (Ser473), PRAS40 (Thr246), Raf (Ser259), MEK (Ser217/221)","[6]; M4N 80 μM, Desferoxamine 75 or 150 μM",not much effect
same,amount of phosphorylated PKCδ at Thr505,PKCδ [7],induced phosphorylation
same,disease stabilization in patients,tumors; Phase I/II,long term stabilization of disease in some patients
same,tumor shrinkage in patients,tumors,tumor shrinkage has rarely been seen
same,total Akt expression,[8],not changed much
same,"expression of phosphorylated PDK (Ser241), Akt (Ser473), PRAS40 (Thr246), Raf (Ser259), MEK (Ser217/221)",[8]; M4N 80 μM,significant reduction
